From patent US20240271096A1, “EFFICIENT DIFFERENTIATION OF SECOND HEART FIELD CARDIAC PROGENITOR CELLS AND RIGHT VENTRICLE CARDIOMYOCYTES FROM HUMAN PLURIPOTENT STEM CELLS” (Wisconsin Alumni Research Foundation, priority 2023, published 2024)

Legend:
Type in all cases: cell-based, human
reporterless hiPSC line = assay: Immunostaining of marker proteins in hiPSC-derived cardiac progenitor cells and cardiomyocytes
Method: For LV-cardiomyocyte differentiation, cardiac differentiation was performed according to the protocol published by (Lian et al., 2012, Proc Natl Acad Sci USA 109:[…]-57). Cells were dissociated with StemPro Accutase Cell Dissociation Reagent at 37° C. for 5 minutes. HESCs were seeded on Matrigel-coated 24-well plates (Corning) in StemFlex Medium supplemented with 10 μmol/[…] were seeded on iMatrix-511-coated 12-well plates (Corning) in StemFit A[…] supplemented with 10 μmol/[…] at seeding densities of 1×10^5 cells/cm^2 for hESCs and 1.25-2.5×10^4 cells/cm^2 for hiPSCs. Cells were cultured for 4 days until the start of differentiation (day 0). On day 0, the medium was changed to RPMI 1640 Medium (Thermo Fisher Scientific) supplemented with B-27 Supplement minus insulin (Thermo Fisher Scientific) (RPMI/B27-insulin) or B-27 Supplement with insulin (Thermo Fisher Scientific), and 12 μmol/L CHIR 99021 (SelleckChem, Houston, TX, United States), and the cells incubated in this medium for 24 h (day 1). On day 1, the medium was changed to RPMI/B27-insulin. […] On day 3, the medium was changed to RPMI/B27-insulin supplemented with 5 μmol/L IWP2 (SelleckChem) and on day 5, the medium was changed to 1 ml RPMI/B27-insulin. From day 7, the cells were cultured with RPMI/B27-insulin, and the cells were fed every other day. On day 12, the cells were washed with PBS (Thermo Fisher Scientific) and cultured with DMEM or RPMI, no glucose supplemented with 8 mmol/L L-(+)-Lactic acid (Merck) (Tohyama et al., 2013 Cell Stem Cell, 12:127-37). The medium was changed every other day until day 17. After day 17, the cells were cultured with RPMI/B27 and fed every 2 to 3 days. For long-term culture, the cells were dissociated with TrypLETM Select Enzyme (10×) (Thermo Fisher Scientific) at 37° C. for 15-20 minutes and seeded on Matrigel- or iMatrix-511-coated plates. […] For FIG. 15A and FIG. 15B, dorsomorphin (DM) or 3 μg/L insulin were added on day 0 (for 24 hours), 1, 3, or 5 (for 48 hours). Cells were plated on iMatrix-511-coated plates and fixed in 4% paraformaldehyde (Nacalai, Kyoto, Japan) for 15 minutes. Cells were permeabilized with 0.1% Triton X-100 (Sigma-Aldrich, St. Louis, MO, United States)/PBS and blocked with 10% goat serum (Sigma-Aldrich). Primary and secondary antibodies were diluted in 0.1% Triton X-100/PBS with 5% goat serum and stained with Hoechst 33342 (Thermo Fisher Scientific) at 1 μg/mL, mouse anti-cardiac troponin T monoclonal IgG1 (GTX28295, GeneTex, Irvine, CA, United States) diluted at 1:16000, mouse anti-α-actinin monoclonal IgG1 (A7811, Sigma-Aldrich) diluted at 1:1000, rabbit anti-MLC2v monoclonal IgG (ab92721, Abcam, Cambridge, United Kingdom) diluted at 1:500, rabbit anti-CXCR4 monoclonal IgG (ab181020, Abcam) diluted at 1:2000, rabbit anti-NKX2-5 monoclonal IgG (Cat #. […], Cell Signaling Technology, Danvers, MA, United States) diluted at 1:2500, mouse anti-Nav1.5 (Car #. ASC-013, Alomone Labs) diluted at 1:1000, rabbit anti-connexin 43 (Cat #. 83649, Cell Signaling Technology) diluted at 1:1000, and mouse anti-TBX5 monoclonal IgG2a (Cat #. sc-515536, Santa Cruz Biotechnology, Dallas, TX, United States) diluted at 1:500. These cells were then incubated with a secondary antibody, goat anti-mouse or rabbit polyclonal IgG conjugated with iFluor 488 or 555 (AAT Bioquest, Sunnyvale, CA, United States) diluted at 1:1000, for 1 hour at room temperature. The cells were then observed with IX71 (Olympus, Tokyo, Japan) or EVOS FL Auto (Thermo Fisher Scientific) and images processed with ImageJ ([…] al., 2012, Nat Methods, 9:671-5).

hPSC-CMs = assay: Quantitative PCR of purified hiPSC-derived cardiomyocytes; settings: DMH1-treated cell-derived cardiomyocytes at day 34
Method: For LV-cardiomyocyte differentiation, cardiac differentiation was performed according to the protocol published by (Lian et al., 2012, Proc Natl Acad Sci USA 109:[…]-57). Cells were dissociated with StemPro Accutase Cell Dissociation Reagent at 37° C. for 5 minutes. HESCs were seeded on Matrigel-coated 24-well plates (Corning) in StemFlex Medium supplemented with 10 μmol/[…] were seeded on iMatrix-511-coated 12-well plates (Corning) in StemFit A[…] supplemented with 10 μmol/[…] at seeding densities of 1×10^5 cells/cm^2 for hESCs and 1.25-2.5×10^4 cells/cm^2 for hiPSCs. Cells were cultured for 4 days until the start of differentiation (day 0). On day 0, the medium was changed to RPMI 1640 Medium (Thermo Fisher Scientific) supplemented with B-27 Supplement minus insulin (Thermo Fisher Scientific) (RPMI/B27-insulin) or B-27 Supplement with insulin (Thermo Fisher Scientific), and 12 μmol/L CHIR 99021 (SelleckChem, Houston, TX, United States), and the cells incubated in this medium for 24 h (day 1). On day 1, the medium was changed to RPMI/B27-insulin. […] PowerUpTM SYBR Green Master Mix (Thermo Fisher Scientific) and QuantStudio 1 (Thermo Fisher Scientific) were used for quantitative PCR (q-PCR), wherein q-PCR data were processed using the ΔΔCT method. […] Data were analyzed with the web-based tool of GeneGlobe Data Analysis Center (Qiagen).

hiPSC-derived cells = assay: Flow cytometry of cardiac troponin T (cTnT); settings: 1 μmol/L on day 0; day 12; n=4; mean±SD; control 82.1±2.6%, p=0.04
Method: For LV-cardiomyocyte differentiation, cardiac differentiation was performed according to the protocol published by (Lian et al., 2012, Proc Natl Acad Sci USA 109:[…]-57). Cells were dissociated with StemPro Accutase Cell Dissociation Reagent at 37° C. for 5 minutes. HESCs were seeded on Matrigel-coated 24-well plates (Corning) in StemFlex Medium supplemented with 10 μmol/[…] were seeded on iMatrix-511-coated 12-well plates (Corning) in StemFit A[…] supplemented with 10 μmol/[…] at seeding densities of 1×10^5 cells/cm^2 for hESCs and 1.25-2.5×10^4 cells/cm^2 for hiPSCs. Cells were cultured for 4 days until the start of differentiation (day 0). On day 0, the medium was changed to RPMI 1640 Medium (Thermo Fisher Scientific) supplemented with B-27 Supplement minus insulin (Thermo Fisher Scientific) (RPMI/B27-insulin) or B-27 Supplement with insulin (Thermo Fisher Scientific), and 12 μmol/L CHIR 99021 (SelleckChem, Houston, TX, United States), and the cells incubated in this medium for 24 h (day 1). On day 1, the medium was changed to RPMI/B27-insulin. […] On day 3, the medium was changed to RPMI/B27-insulin supplemented with 5 μmol/L IWP2 (SelleckChem) and on day 5, the medium was changed to 1 ml RPMI/B27-insulin. […] The cells were resuspended in 0.5% bovine serum albumin (Merck)/PBS and analyzed with an Attune NxT Flow Cytometer (Thermo Fisher Scientific).

| Structure (SMILES) | CXCR4 expression (immunostaining) (reporterless hiPSC line; 0.5 μmol/L on day 0, day 7) | MLC2v, ventricular marker protein (immunostaining) (reporterless hiPSC line; 0.5 μmol/L on day 0, day 35) | NKX2-5-positive/cTnT-positive cardiomyocytes (reporterless hiPSC line; DMH1 on differentiation day 0, day 10) | TBX5 expression (immunostaining) (reporterless hiPSC line; DMH1 on differentiation day 0, day 10, dose-dependent) | immunostaining signal of Nav1.5 and Connexin 43 (reporterless hiPSC line; cardiomyocytes day 34, vs control) | expression of TGFB1, COL1A1, COL1A2, COL3A1, and COL5A1 (qPCR) (hPSC-CMs) | percentages of cTnT-positive cells (hiPSC-derived cells) [%] |
| --- | --- | --- | --- | --- | --- | --- | --- |
| CC(C)Oc1ccc(-c2cnc3c(-c4ccnc5ccccc45)cnn3c2)cc1 [DMH1, dorsomorphin homologue 1, reference compound] | upregulated | expressed | induced | reduced | reduction | reduced |  |
| c1cc(-c2cnn3cc(-c4ccc(OCCN5CCCCC5)cc4)cnc23)ccn1 [dorsomorphin] |  |  |  |  |  |  | 70.4±7.3 |
